Read-outs that look alike come from different tables or passages of the source.
Tests used:
Assay type in all cases: cell-based
[1] = test system: SARS-CoV-2 virus (hCoV-19/Egypt/NRC-03/2020); experiment: microbe, parasite or virus in culture
MTT cytotoxicity assay = conditions: African green monkey
Experimental: (§1) To assess the half maximal cytotoxic concentration (CC50), stock solutions of the test compounds were prepared in 10% DMSO in ddH2O and diluted further to the working solutions with DMEM. The cytotoxic activity of the extracts was tested in Vero E6 cells by using the 3-(4,5-dimethylthiazol-2-yl)-2,5-diphenyltetrazolium bromide (MTT) method with minor modifications. Briefly, the cells were seeded in 96-well plates (100 µL/well at a density of 3 × 10^5 cells/mL) and incubated for 24 h at 37 °C in 5%CO2. After 24 h, cells were treated with various concentrations of the tested compounds in triplicates. 24 h later, the supernatant was discarded, and cell monolayers were washed with sterile 1x phosphate buffer saline (PBS) 3 times and MTT solution (20 µL of 5 mg/mL stock solution) was add to each well and incubated at 37 °C for 4 h followed by medium aspiration. In each well, the formed formazan crystals were dissolved with 200 µL of acidified isopropanol (0.04 M HCl in absolute isopropanol = 0.073 mL HCL in 50 mL isopropanol). Absorbance of formazan solutions was measured at λ max 540 nm with 620 nm as a reference wavelength using a multi-well plate reader. The percentage of cytotoxicity compared to the untreated cells was determined with the following equation.

Vero E6 cells = experiment: MTT cytotoxicity assay; conditions: Vero E6 cells, MTT, 24 h treatment
Experimental: as §1

[2] = Severe acute respiratory syndrome coronavirus 2, Vero C1008, 72 h, read-out: IC50 against SARS-CoV-2
[3] = Vero E6 cells, MTT, 24 h treatment, read-out: CC50
[4] = Vero E6 cells, MTT, 24 h treatment, read-out: CC50 (Figure 2)
[5] = Severe acute respiratory syndrome coronavirus 2, Vero C1008, 72 h, read-out: IC50 against SARS-CoV-2 (Figure 2)

| Compound | selectivity index (SI = CC50/IC50) [1] | IC50 [1, 2] | CC50 at 24 h (MTT cytotoxicity assay; [3]) | CC50 at 24 h (MTT cytotoxicity assay; [4]) | IC50 [1, 5] | also measured |
| --- | --- | --- | --- | --- | --- | --- |
| COc1cc(OC)c2c(O)c3c(=O)cc(C)oc3c(-c3c(OC)cc4cc5oc(C)cc(=O)c5c(O)c4c3OC)c2c1 [Aurasperone A (3), aurasperone A] | 2641.5 | 12.2 µM | 32400 µM | 32400 µM |  |  |
| COc1cc(OC)c2c(c1)cc(O)c1c(=O)cc(C)oc12 [Flavasperone (1), flavasperone] |  |  |  | 189 µM | 204 µM |  |
| COc1cc(OC)c2c(O)c3c(=O)cc(C)oc3c(-c3c(OC)cc4cc(O)c5c(=O)cc(C)oc5c4c3OC)c2c1 [Fonsecinone A (4), fonsecinone A] | 4.7 | 61.1 µM |  | 288 µM | 61.6 µM |  |
| COc1cc(OC)c2c(O)c3c(=O)cc(C)oc3c(-c3c(OC)cc(OC)c4c(O)c5c(=O)cc(C)oc5cc34)c2c1 [Rubasperone B (6), rubasperone B] |  |  |  |  |  | IC50 ([1]; Severe acute respiratory syndrome coronavirus 2, Vero C1008, Vero E6 cells infected with hCoV-19/Egypt/NRC-03/2020, 72 h, read-out: IC50 against SARS-CoV-2 (Figure 2)): 105 µM; CC50 at 24 h (MTT cytotoxicity assay): 181 µM |
| CCC(CC)COC(=O)[C@H](C)N[P@](=O)(OC[C@H]1O[C@@](C#N)(c2ccc3c(N)ncnn23)[C@H](O)[C@@H]1O)Oc1ccccc1 [remdesivir, reference compound] |  |  | 415 µM |  |  | selectivity index (SI = CC50/IC50) ([1]; CC50 in Vero E6 cells / IC50 against SARS-CoV-2): 41.07; IC50 ([1]; Severe acute respiratory syndrome coronavirus 2, Vero C1008, Vero E6 cells infected with hCoV-19/Egypt/NRC-03/2020, 72 h, CPE reduction by 50%, read-out: IC50 against SARS-CoV-2): 10.1 µM; CC50 (Vero E6 cells): 415 µM |

Source: publication PMC8949533, “Aurasperone A Inhibits SARS CoV-2 In Vitro: An Integrated In Vitro and In Silico Study” (Marine Drugs, 2022)
